Where two headings read alike, the source gives them in different places.
Tests used:
[1] = biological target: recombinant human NF-kappaB-inducing kinase (NIK/MAP3K14) (Homo sapiens (Human), UniProt Q99558); experiment: Inhibition of auto-phosphorylation of recombinant human NIK/MAP3K14 activity (AlphaScreen); assay type: biochemical; details: averaged values over all measurements on all batches
In short: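 AlphaScreen read-out, using anti-phospho-IKK Ser176/180 antibody, tracked NIK autophosphorylation after 1 h at 25° C. Reactions held 0.2 nM GST-NIK, 25 microM ATP and compound in 1% DMSO, Tris pH 7.5 buffer. IC50 fitted sigmoidally to blank-subtracted inhibition data.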

KMS12-BM cells = experiment: Antiproliferative activity on KMS12-BM (NIK WT) multiple myeloma cells (CellTiter-Glo); assay type: cell-based, human; details: read-out: KMS-12 Proliferation inhibition (IC50 (nM))
In short: (§1)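 Viability was read by CellTiter-Glo after 96 hr compound exposure (9-point, 1:3 serial dilutions; 0.3% DMSO final). JJN-3 and KMS12-BM cells were seeded at 15000 and 20000 per well respectively in RPMI 1640/10% FCS; blank-subtracted signals were given as percent of drug-free controls.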

JJN-3 cells = experiment: Antiproliferative activity on JJN-3 (NIK translocated) multiple myeloma cells (CellTiter-Glo); assay type: cell-based, human; details: read-out: JJN-3 Proliferation inhibition (IC50 (nM))
In short: as §1

[2] = system: P-IKKα levels in L363 cells; experiment: Effect of compounds on P-IKKα levels in L363 (NIK translocated multiple myeloma) cells; assay type: cell-based, human
In short: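 L363 myeloma cells were primed 24 h with BAFF, then treated 2 h with compound (8-point, 1:3 dilutions, 1% DMSO) at 37°C. P-IKKα in lysates was measured by Mesoscale sandwich immunoassay, with the full-inhibition blank subtracted. IC50 came from a sigmoidal fit of % inhibition of control against log concentration.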

[3] = Homo sapiens, KMS-12-BM, 96 h, KMS12-BM (NIK WT) cells, 96 hr, averaged values
[4] = Homo sapiens, JJN-3, 96 h, JJN-3 (NIK translocated) cells, 96 hr, averaged values
[5] = Homo sapiens, L-363, L363 cells, averaged values, read-out: Inhibition of pIKKα_L-363 (IC50 (nM))
[6] = KMS12-BM (NIK WT) cells, 96 hr, averaged values
[7] = JJN-3 (NIK translocated) cells, 96 hr, averaged values
[8] = L363 cells, averaged values, read-out: Inhibition of pIKKα_L-363 (IC50 (nM))

Sequence of recombinant human NF-kappaB-inducing kinase (NIK/MAP3K14) (Q99558 whole entry): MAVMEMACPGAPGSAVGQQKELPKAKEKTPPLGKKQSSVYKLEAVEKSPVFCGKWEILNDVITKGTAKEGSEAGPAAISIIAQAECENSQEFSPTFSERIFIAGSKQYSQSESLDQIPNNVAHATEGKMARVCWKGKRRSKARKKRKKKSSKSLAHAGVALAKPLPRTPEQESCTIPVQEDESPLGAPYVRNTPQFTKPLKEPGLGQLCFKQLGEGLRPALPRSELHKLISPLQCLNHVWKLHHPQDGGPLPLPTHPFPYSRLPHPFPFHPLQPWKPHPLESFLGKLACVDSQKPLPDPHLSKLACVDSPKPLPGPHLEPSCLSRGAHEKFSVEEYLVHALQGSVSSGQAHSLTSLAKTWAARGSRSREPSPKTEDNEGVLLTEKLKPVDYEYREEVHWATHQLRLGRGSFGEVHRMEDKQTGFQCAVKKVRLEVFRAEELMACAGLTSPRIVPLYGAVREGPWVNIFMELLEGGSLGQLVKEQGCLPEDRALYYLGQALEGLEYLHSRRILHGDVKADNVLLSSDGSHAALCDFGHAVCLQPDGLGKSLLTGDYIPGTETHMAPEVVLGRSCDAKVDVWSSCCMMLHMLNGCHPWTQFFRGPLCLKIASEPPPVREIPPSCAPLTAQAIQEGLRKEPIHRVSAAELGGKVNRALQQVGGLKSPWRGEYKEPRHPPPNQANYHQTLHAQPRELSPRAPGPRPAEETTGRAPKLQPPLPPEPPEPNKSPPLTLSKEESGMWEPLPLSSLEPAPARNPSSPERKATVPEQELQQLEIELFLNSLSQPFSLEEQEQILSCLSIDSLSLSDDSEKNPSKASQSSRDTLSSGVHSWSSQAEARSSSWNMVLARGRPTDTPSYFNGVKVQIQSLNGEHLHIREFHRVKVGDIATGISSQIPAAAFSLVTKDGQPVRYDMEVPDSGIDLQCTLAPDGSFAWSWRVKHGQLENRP

Compound	IC50 [1]	IC50 (KMS12-BM cells; [3])	IC50 (JJN-3 cells; [4])	IC50 [2, 5]	IC50 (KMS12-BM cells; [6])	IC50 (JJN-3 cells; [7])	IC50 [2, 8]	IC50 (KMS12-BM cells; Homo sapiens, KMS-12-BM, 96 h)	IC50 (JJN-3 cells; Homo sapiens, JJN-3, 96 h)	IC50 ([2]; Homo sapiens, L-363, read-out: Inhibition of pIKKα_L-363 (IC50 (nM)))
Cc1c(Nc2nccc(-c3cc(C#N)c4c(c3)[C@@](C)(CO)CN4)n2)cnn1CCN1CCOCC1 [Compound 170]	2.2 nM	~1780 nM	417 nM	7 nM	–	–	–	–	–	–
Cn1ccc(Nc2nccc(-c3cc(C#N)c4c(c3)[C@@](C)(CN3CCN(C5CC5)CC3)CN4)n2)n1 [Compound 176]	32 nM	~3310 nM	65 nM	76 nM	–	–	–	–	–	–
COCCCn1nc(C)cc1Nc1nccc(-c2cc(C#N)c3c(c2)[C@@](C)(COC(C)=O)CN3)n1 [Compound 177]	10 nM	> 10000 nM	81 nM	28 nM	–	–	–	–	–	–
CC(=O)OC[C@@]1(C)CNc2c(C#N)cc(-c3ccnc(Nc4cc(C)nn4CC4CCN(C)CC4)n3)cc21 [Compound 178]	20 nM	–	–	–	2340 nM	98 nM	141 nM	–	–	–
COCCc1nn(CC(F)F)cc1Nc1nccc(-c2cc(C#N)c3c(c2)[C@@](C)(CO)CN3)n1 [Compound 180]	4.7 nM	~6720 nM	46 nM	2 nM	–	–	–	–	–	–
COCCc1c(Nc2nccc(-c3cc(C#N)c4c(c3)[C@@](C)(CO)CN4)n2)cnn1CC(F)F [Compound 181]	3.3 nM	~9120 nM	87 nM	11 nM	–	–	–	–	–	–
Cc1cc(Nc2nccc(-c3cc(C#N)c4c(c3)[C@@](C)(CO)CN4)n2)nn1CCN1CCOCC1 [Compound 182]	1.7 nM	1380 nM	151 nM	1 nM	–	–	–	–	–	–
CNC(=O)c1cc(Nc2nccc(-c3cc(C#N)c4c(c3)[C@@](C)(CO)CN4)n2)n(C(C)C)n1 [Compound 183]	22 nM	~9770 nM	1410 nM	35 nM	–	–	–	–	–	–
CN1CCN(C(=O)c2nn(CC(F)F)cc2Nc2nccc(-c3cc(C#N)c4c(c3)[C@@](C)(CO)CN4)n2)CC1 [Compound 184]	5.4 nM	> 10000 nM	224 nM	17 nM	–	–	–	–	–	–
CN1CCN(Cc2nn(CC(F)F)cc2Nc2nccc(-c3cc(C#N)c4c(c3)[C@@](C)(CO)CN4)n2)CC1 [Compound 185]	6 nM	> 10000 nM	91 nM	20 nM	–	–	–	–	–	–
Cc1cc(Nc2nccc(-c3cc(C#N)c4c(c3)[C@@](C)(CO)CN4)n2)n(CC(F)F)n1 [Compound 186]	6.5 nM	617 nM	151 nM	3 nM	–	–	–	–	–	–
CNC(=O)c1nn(CC(F)F)cc1Nc1nccc(-c2cc(C#N)c3c(c2)[C@@](C)(CO)CN3)n1 [Compound 187]	7.2 nM	> 10000 nM	~1380 nM	11 nM	–	–	–	–	–	–
CC(C)Oc1nn(CC(F)F)cc1Nc1nccc(-c2cc(C#N)c3c(c2)[C@@](C)(CO)CN3)n1 [Compound 188]	2.9 nM	~8130 nM	138 nM	4 nM	–	–	–	–	–	–
Cn1ncc(Nc2nccc(-c3cc(C#N)c4c(c3)[C@@](C)(CO)CN4)n2)c1OC1CC1 [Compound 192]	8.1 nM	> 10000 nM	91 nM	6 nM	–	–	–	–	–	–
CC(C)Oc1c(Nc2nccc(-c3cc(C#N)c4c(c3)[C@@](C)(CO)CN4)n2)cnn1C [Compound 194]	3.1 nM	> 10000 nM	407 nM	29 nM	–	–	–	–	–	–
CNC(=O)c1cc(Nc2nccc(-c3cc(C#N)c4c(c3)[C@@](C)(CO)CN4)n2)nn1C1CCCC1 [Compound 195]	4.9 nM	> 10000 nM	158 nM	1 nM	–	–	–	–	–	–

Compound	IC50 [1]	IC50 (KMS12-BM cells; [3])	IC50 (JJN-3 cells; [4])	IC50 [2, 5]	IC50 (KMS12-BM cells; [6])	IC50 (JJN-3 cells; [7])	IC50 [2, 8]	IC50 (KMS12-BM cells; Homo sapiens, KMS-12-BM, 96 h)	IC50 (JJN-3 cells; Homo sapiens, JJN-3, 96 h)	IC50 ([2]; Homo sapiens, L-363, read-out: Inhibition of pIKKα_L-363 (IC50 (nM)))
CNC(=O)c1cc(Nc2nccc(-c3cc(C#N)c4c(c3)[C@@](C)(CO)CN4)n2)n(C2CCCC2)n1 [Compound 196]	8.3 nM	5250 nM	554 nM	36 nM	–	–	–	–	–	–
CNC(=O)c1cc(Nc2nccc(-c3cc(C#N)c4c(c3)[C@@](C)(CO)CN4)n2)nn1CC(F)F [Compound 197]	2.1 nM	~2240 nM	204 nM	4 nM	–	–	–	–	–	–
CNC(=O)c1cc(Nc2nccc(-c3cc(C#N)c4c(c3)[C@@](C)(CO)CN4)n2)n(CCC2CC2)n1 [Compound 198]	6.8 nM	> 10000 nM	112 nM	20 nM	–	–	–	–	–	–
CCn1ncc(Nc2nccc(-c3cc(C#N)c4c(c3)[C@@](C)(CO)CN4)n2)c1N1CCOCC1 [Compound 199]	3.5 nM	> 10000 nM	1900 nM	25 nM	–	–	–	–	–	–
C[C@]1(CO)CNc2c(C#N)cc(-c3ccnc(Nc4cnn(CCN5CC6COCC6C5)c4N4CCOCC4)n3)cc21 (some centres unmarked) [Compound 200]	5.9 nM	–	–	–	–	–	–	> 10000 nM	3550 nM	20 nM
CNC(=O)c1cc(Nc2nccc(-c3cc(C#N)c4c(c3)[C@@](C)(CO)CN4)n2)nn1CCC1CC1 [Compound 201]	3.4 nM	–	–	–	> 10000 nM	100 nM	2 nM	–	–	–
Cn1cc(Nc2nccc(-c3cc(C#N)c4c(c3)[C@@](C)(CO)CN4)n2)c(OCCN2CCOCC2)n1 [Compound 203]	4 nM	> 10000 nM	339 nM	25 nM	–	–	–	–	–	–
CC(C)c1nn(CC(F)F)cc1Nc1nccc(-c2cc(C#N)c3c(c2)[C@@](C)(CO)CN3)n1 [Compound 204]	1.1 nM	~6030 nM	16 nM	2 nM	–	–	–	–	–	–
C[C@]1(CO)CNc2c(C#N)cc(-c3ccnc(Nc4cn(CC(F)F)nc4C4CC4)n3)cc21 [Compound 205]	2.2 nM	~4900 nM	5 nM	1 nM	–	–	–	–	–	–
C[C@]1(CO)CNc2c(C#N)cc(-c3ccnc(Nc4cnn(CCN5CCOCC5)c4Cl)n3)cc21 [Compound 208]	2 nM	~4790 nM	48 nM	4 nM	–	–	–	–	–	–
CC(C)n1nc(C(=O)N2CCCC2)cc1Nc1nccc(-c2cc(C#N)c3c(c2)[C@@](C)(CO)CN3)n1 [Compound 210]	6.3 nM	> 10000 nM	1580 nM	71 nM	–	–	–	–	–	–
C[C@]1(CO)CNc2c(C#N)cc(-c3ccnc(Nc4cc(C(=O)N5CCCC5)n(C5CCCC5)n4)n3)cc21 [Compound 213]	5.6 nM	> 10000 nM	95 nM	27 nM	–	–	–	–	–	–
COCCOc1nn(CC(F)F)cc1Nc1nccc(-c2cc(C#N)c3c(c2)[C@@](C)(CO)CN3)n1 [Compound 217]	4.6 nM	~7620 nM	154 nM	11 nM	–	–	–	–	–	–
C[C@]1(CO)CNc2c(C#N)cc(-c3ccnc(Nc4cn(CC(F)F)nc4OC4CC4)n3)cc21 [Compound 218]	2.8 nM	~7430 nM	38 nM	7 nM	–	–	–	–	–	–
C[C@]1(CO)CNc2c(C#N)cc(-c3cc(Nc4cn(CC(F)F)nc4C4CCOCC4)ncn3)cc21 [Compound 220]	5.6 nM	> 10000 nM	195 nM	11 nM	–	–	–	–	–	–
COC[C@H](O)Cn1ncc(Nc2nccc(-c3cc(C#N)c4c(c3)[C@@](C)(CO)CN4)n2)c1OC [Compound 221]	14.8 nM	> 10000 nM	2290 nM	~105 nM	–	–	–	–	–	–

— patent publication US11136311B2, “Heteroaromatic derivatives as NIK inhibitors” (Janssen Pharmaceutica NV, priority 2016, dated 2021)
